Counter-ions that a name gives are not always drawn. Like-named read-outs stand apart in the source and are kept apart here.
Target: T1, BACE1 enzyme (soluble, truncated BACE enzyme, BACE1deltaTM96His) (Homo sapiens, UniProt P56817)
T1 construct: soluble, truncated BACE enzyme (BACE1deltaTM96His); His; made in house
Assay: BACE1 Fluorescent Polarization (FP) Assay
Assay type: biochemical
Details: geometric mean of 2-4 IC50 determinations unless footnoted (^2: 5-6 determinations; ^4: single determination)
From the text: BACE1 Fluorescent Polarization (FP) Assay
The fluorescently tagged synthetic substrate, Biotin-GLTNIKTEEISEISŶEVEFR-C[oregon green]KK-OH can be efficiently cleaved by the beta-secretase enzyme and is therefore useful to assay beta-secretase activity in the presence or absence of inhibitory compounds. The his tagged BACE1 enzyme was affinity purified material from conditioned media of CHO-K1 cells that had been transfected to express soluble, truncated BACE enzyme (BACE1deltaTM96His). Compounds were incubated in a ½ log dose response (from a top concentration of 100 μM) with BACE1 enzyme (0.1 nM final) and the biotinylated fluorescent peptide substrate (150 nM final) in assay buffer containing 100 mM sodium acetate, pH 4.5 (brought to pH with acetic acid), and 0.001% Tween-20. Total reaction volumes of 30 μL were carried out in 384-well black plates (Thermo Scientific 4318). Plates were covered and incubated for 3 hours at 37° C. The reactions were then stopped by addition of 30 μL of 1.5 μM Streptavidin (Pierce, 21125). After a 10 minute incubation at room temperature, plates were read on a PerkinElmer Envision for fluorescence polarization (Ex485 nm/Em530 nm). The activity of the beta-secretase enzyme is detected by changes in the fluorescence polarization (Δ mP) that occur when the substrate is cleaved by the enzyme.

[1] = 8-point curve, read-out: BACE activity, 8-point curve, IC50
[2] = 11-point curve, read-out: BACE activity, 11-point curve, IC50

T1 sequence (P56817 46-457): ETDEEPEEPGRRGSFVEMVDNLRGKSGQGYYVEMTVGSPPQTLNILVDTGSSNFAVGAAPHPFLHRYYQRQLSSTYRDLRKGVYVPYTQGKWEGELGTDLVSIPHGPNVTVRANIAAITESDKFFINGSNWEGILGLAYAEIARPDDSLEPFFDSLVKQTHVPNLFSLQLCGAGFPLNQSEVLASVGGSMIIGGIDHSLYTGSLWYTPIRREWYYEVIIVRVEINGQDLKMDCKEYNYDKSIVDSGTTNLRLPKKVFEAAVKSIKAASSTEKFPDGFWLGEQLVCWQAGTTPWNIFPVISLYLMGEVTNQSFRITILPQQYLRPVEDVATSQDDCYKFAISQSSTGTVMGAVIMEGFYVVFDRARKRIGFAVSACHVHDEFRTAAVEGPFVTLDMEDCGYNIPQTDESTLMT

SMILES	IC50 [1] [nM]	IC50 [2] [nM]
CC(C)Oc1cccc(CN2CC[C@]3(C=CS(=O)(=O)N3c3cccc(F)c3)C[C@@H]2C)c1 [Example 17, (5R,7S)-1-(3-fluorophenyl)-8-(3-isopropoxybenzyl)-7-methyl-2-thia-1,8-diazaspiro[4.5]dec-3-ene 2,2-dioxide]	84.9	908
C[C@H]1C[C@]2(CCN1Cc1ncoc1-c1cncs1)CCS(=O)(=O)N2c1cccc(F)c1 [Example 60, (5R,7S)-1-(3-fluorophenyl)-7-methyl-8-{[5-(1,3-thiazol-5-yl)-1,3-oxazol-4-yl]methyl}-2-thia-1,8-diazaspiro[4.5]decane 2,2-dioxide, hydrochloride salt]	–	6540
C[C@H]1C[C@]2(CCN1Cc1ccc(O)c(Cl)c1)CCS(=O)(=O)N2c1cccc(F)c1 [Example 29, 2-chloro-4-{[(5R7S)-1-(3-fluorophenyl)-7-methyl-2,2-dioxido-2-thia-1,8-diazaspiro[4.5]dec-8-yl]methyl}phenol, hydrochloride salt]	332	1530
CC(C)Oc1cc(CN2CC[C@]3(CCS(=O)(=O)N3c3cccc(F)c3)C[C@@H]2C)ccc1O [Example 1, 4-{[(5R,7S)-1-(3-Fluorophenyl)-7-methyl-2,2-dioxido-2-thia-1,8-diazaspiro[4.5]dec-8-yl]methyl}-2-isopropoxyphenol]	35	–
Cc1cncc(-c2ocnc2CN2CC[C@]3(C=CS(=O)(=O)N3c3cccc(F)c3)C[C@@H]2C)c1 [Example 38, (5R,7S)-1-(3-fluorophenyl)-7-methyl-8-{[5-(5-methylpyridin-3-yl)-1,3-oxazol-4-yl]methyl}-2-thia-1,8-diazaspiro[4.5]dec-3-ene 2,2-dioxide]	752	2780
CC(C)Oc1cccc(CN2CC[C@@]3(C[C@@H]2C)C(O)CS(=O)(=O)N3c2cccc(F)c2)c1 (stereo partly drawn) [Example 65, (5R,7S)-1-(3-fluorophenyl)-8-(3-isopropoxybenzyl)-7-methyl-2-thia-1,8-diazaspiro[4.5]decan-4-ol 2,2-dioxide]	–	3160
COC1=CS(=O)(=O)N(c2cccc(F)c2)[C@@]12CCN(Cc1cccc(OC(C)C)c1)[C@@H](C)C2 [Example 63, (5R,7S)-1-(3-fluorophenyl)-8-(3-isopropoxybenzyl)-4-methoxy-7-methyl-2-thia-1,8-diazaspiro[4.5]dec-3-ene 2,2-dioxide]	5820	–
Cc1cccnc1-c1cc(CN2CC[C@@]3(C[C@@H]2C)C(=O)CS(=O)(=O)N3c2cccc(F)c2)ccc1O [Example 85, (5R,7S)-1-(3-fluorophenyl)-8-[4-hydroxy-3-(3-methylpyridin-2-yl)benzyl]-7-methyl-2-thia-1,8-diazaspiro[4.5]decan-4-one 2,2-dioxide]	–	715
COC1=CS(=O)(=O)N(c2cccc(F)c2)[C@@]12CCN(Cc1ccc(O)c(-c3nscc3C)c1)[C@@H](C)C2 [Example 86, 4-{[(5R,7S)-1-(3-fluorophenyl)-4-methoxy-7-methyl-2,2-dioxido-2-thia-1,8-diazaspiro[4.5]dec-3-en-8-yl]methyl}-2-(4-methylisothiazol-3-yl)phenol, ammonium salt]	–	117
C[C@H]1C[C@@]2(C=CS(=O)(=O)N2c2cccc(F)c2)CCN1Cc1ccc(O)c(C2CCCO2)c1 (single isomer, unassigned) [Example 31]	10.5	62.6
C[C@H]1C[C@@]2(C=CS(=O)(=O)N2c2cccc(F)c2)CCN1Cc1scnc1CC1CC1 [Example 24, (5R,7S)-8-{[4-(cyclopropylmethyl)-1,3-thiazol-5-yl]methyl}-1-(3-fluorophenyl)-7-methyl-2-thia-1,8-diazaspiro[4.5]dec-3-ene 2,2-dioxide, hydrochloride salt]	51.9	353

Next, values leading:

IC50 [1] [nM]	IC50 [2] [nM]	SMILES
703	2380	C[C@H]1C[C@@]2(C=CS(=O)(=O)N2c2cccc(F)c2)CCN1Cc1ccc2[nH]ccc2c1 [Example 41, (5R,7S)-1-(3-fluorophenyl)-8-(1H-indol-5-ylmethyl)-7-methyl-2-thia-1,8-diazaspiro[4.5]dec-3-ene 2,2-dioxide]
–	6460	C[C@H]1C[C@]2(CCN1Cc1ncoc1C1CCCO1)CCS(=O)(=O)N2c1cccc(F)c1 (mixture of isomers) [Example 80, (5R,7S)-1-(3-fluorophenyl)-7-methyl-8-{[5-(tetrahydrofuran-2-yl)-1,3-oxazol-4-yl]methyl}-2-thia-1,8-diazaspiro[4.5]decane 2,2-dioxide]
< 4.2	–	CCc1ccccc1-c1cc(CN2CC[C@]3(C=CS(=O)(=O)N3c3cccc(F)c3)C[C@@H]2C)ccc1O [Example 6, 2′-ethyl-5-{[(5R,7S)-1-(3-fluorophenyl)-7-methyl-2,2-dioxido-2-thia-1,8-diazaspiro[4.5]dec-3-en-8-yl]methyl}biphenyl-2-ol]
40.5	–	Cc1ccccc1-c1cccc(CN2CC[C@]3(CCS(=O)(=O)N3c3cccc(F)c3)C[C@@H]2C)c1 [Example 52, (5R,7S)-1-(3-fluorophenyl)-7-methyl-8-[(2′-methylbiphenyl-3-yl)methyl]-2-thia-1,8-diazaspiro[4.5]decane 2,2-dioxide, formate salt]
414	–	C[C@H]1C[C@@]2(C=CS(=O)(=O)N2c2cccc(F)c2)CCN1Cc1ncoc1-c1cccnc1 [Example 22, (5R,7S)-1-(3-fluorophenyl)-7-methyl-8-[(5-pyridin-3-yl-1,3-oxazol-4-yl)methyl]-2-thia-1,8-diazaspiro[4.5]dec-3-ene 2,2-dioxide, hydrochloride salt]
53.3	–	C[C@H]1C[C@@]2(C=CS(=O)(=O)N2c2cccc(F)c2)CCN1Cc1ccc(O)c(C2CCCO2)c1 (mixture of isomers) [Example 11, 4-{[(5R,7S)-1-(3-fluorophenyl)-7-methyl-2,2-dioxido-2-thia-1,8-diazaspiro[4.5]dec-3-en-8-yl]methyl}-2-(tetrahydrofuran-2-yl)phenol]
81.5	613	CC(C)Oc1cc(CN2CC[C@]3(CCS(=O)(=O)N3c3cccc(F)c3)C[C@@H]2C)ncc1O [Example 3, 6-{[(5R,7S)-1-(3-Fluorophenyl)-7-methyl-2,2-dioxido-2-thia-1,8-diazaspiro[4.5]dec-8-yl]methyl}-4-isopropoxypyridin-3-ol]
754	478	C[C@H]1C[C@@]2(C=CS(=O)(=O)N2c2cccc(F)c2)CCN1Cc1ccc(O)c(Cl)c1 [Example 15, 2-chloro-4-{[(5R,7S)-1-(3-fluorophenyl}-7-methyl-2,2-dioxido-2-thia-1,8-diazaspiro[4.5]dec-3-en-8-yl]methyl}phenol, hydrochloride salt]
–	927	Cc1cccnc1-c1cccc(CN2CC[C@]3(C=CS(=O)(=O)N3c3cccc(F)c3)C[C@@H]2C)c1 [Example 77, (5R,7S)-1-(3-fluorophenyl)-7-methyl-8-[3-(3-methylpyridin-2-yl)benzyl]-2-thia-1,8-diazaspiro[4.5]dec-3-ene 2,2-dioxide, trifluoroacetic acid salt]
1290	2490	C[C@H]1C[C@@]2(C=CS(=O)(=O)N2c2cccc(F)c2)CCN1Cc1ncoc1C1CCOC1 (stereo partly drawn) [Example 71, (5R,7S)-1-(3-fluorophenyl)-7-methyl-8-{[5-(tetrahydrofuran-3-yl)-1,3-oxazol-4-yl]methyl}-2-thia-1,8-diazaspiro[4.5]dec-3-ene 2,2-dioxide]
79.5	414	Cc1ccncc1-c1cccc(CN2CC[C@]3(C=CS(=O)(=O)N3c3cccc(F)c3)C[C@@H]2C)c1 [Example 39, (5R,7S)-1-(3-fluorophenyl)-7-methyl-8-[3-(4-methylpyridin-3-yl)benzyl]-2-thia-1,8-diazaspiro[4.5]dec-3-ene 2,2-dioxide, hydrochloride salt]
59.3	429	CC(C)Oc1cc(CN2CC[C@]3(C=CS(=O)(=O)N3c3ccc(F)c(F)c3)C[C@@H]2C)ccc1O [Example 67, 4-{[(5R,7S)-1-(3,4-difluorophenyl)-7-methyl-2,2-dioxido-2-thia-1,8-diazaspiro[4.5]dec-3-en-8-yl]methyl}-2-isopropoxyphenol]
2290	4460	COc1ccc2[nH]c(CN3CC[C@]4(CCS(=O)(=O)N4c4cccc(F)c4)C[C@@H]3C)cc2c1 [Example 53, (5R,7S)-1-(3-fluorophenyl)-8-[(5-methoxy-1H-indol-2-yl)methyl]-7-methyl-2-thia-1,8-diazaspiro[4.5]decane 2,2-dioxide]
866	3010	C[C@H]1C[C@]2(CCN1Cc1ccc(O)c(C3CCCO3)c1)CCS(=O)(=O)N2c1cccc(F)c1 (single isomer, unassigned) [Example 46]
19	33.3	Cc1ccccc1-c1cc(CN2CC[C@]3(CCS(=O)(=O)N3c3cccc(F)c3)C[C@@H]2C)ccc1O [Example 62, 5-{[(5R,7S)-1-(3-fluorophenyl)-7-methyl-2,2-dioxido-2-thia-1,8-diazaspiro[4.5]dec-8-yl]methyl-2′-methylbiphenyl-2-ol, hydrochloride salt]

Reference: US20130150376A1, “Novel Sultam Compounds” (PFIZER INC., priority 2010, published 2013)
